One experiment has as its system SU-DHL-4 cells. The experiment in a line: Inhibitory effect on cell viability in SU-DHL-4 cell line (Test Example 1). The class given is cell-based, human. As to conditions: 72 hours; for IC50: SU-DHL-4 (wild type) cells, calculated using the measurement results of test example 1, read-out: SU-DHL-4 WT IC50; for IC90: SU-DHL-4 cells, Cell Counting Kit-8, concentration showing 90% inhibition of cell viability, read-out: SU-DHL-4 Cell Viability Inhibition Rate IC90. In short, it runs like this: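 SU-DHL-4 cells were grown at 37° C. under 5% CO2 in RPMI1640 with 10 vol % heat-inactivated FBS plus penicillin/streptomycin, seeded and precultured for 18 to 25 hours, then exposed to test compound at 0.1 vol % DMSO for 72 hours. Viability was read with Cell Counting Kit-8 by absorbance at 450 nm.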

The next experiment concerns DCAF16 KO SU-DHL-4 cells. As to the kind of experiment: Inhibitory effect on cell viability using SU-DHL-4 DCAF16 knock out (KO) cell line (Test Example 6). In kind it is cell-based, human. The following applies: for Activity Attenuation Ratio: (SU-DHL-4 DCAF16 KO IC50)/(SU-DHL-4 WT IC50); for IC50: DCAF16 KO SU-DHL-4 cells, 72 hours, Cell Counting Kit-8, 50% inhibition of cell viability. In short, it runs like this: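 SU-DHL-4 DLBCL cells carrying lentiviral Cas9 plus DCAF16-targeting sgRNA (three KO strains; non-targeting control strain), seeded 2000 cells/well, pre-cultured 18–25 h, then given 9-step compound dilutions (0.1% DMSO final) for 72 h at 37° C. Viability read by CCK-8 colorimetric assay.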
A general note: Tetrazolium dyes change colour on reduction, which living cells bring about.

By IC50 is commonly meant the concentration that inhibits the measured activity by half. For orientation: IC90 means the concentration needed for an effect of 90%.

Like-named read-outs stand apart in the source and are kept apart here.

In the case of `CCC(=O)N1c2ccccc2[C@H](Nc2ccc(NC(=O)CCCC(=O)Nc3cccc(Oc4ccc(NS(=O)(=O)CC)cc4-c4cn(C)c(=O)cc4OC)c3)cc2)C[C@@H]1C` [Compound 16j, N^1-(3-(4-(Ethylsulfonamide)-2-(4-methoxy-1-methyl-6-oxo-1,6-dihydropyridin-3-yl)phenoxy)phenyl)-N5-(4-(((2S,4R)-2-methyl-1-propionyl-1,2,3,4-tetrahydroquinolin-4-yl)amino)phenyl)glutaramide], in the experiment with SU-DHL-4 cells, the IC50 was 0.5 nM and the IC90 stood at 3.09 nM. In the experiment on DCAF16 KO SU-DHL-4 cells, the “Activity Attenuation Ratio” value is recorded as 213 and half-maximal inhibition (IC50) was put at 106 nM.

Take `CCC(=O)N1c2ccccc2[C@H](Nc2ccc(NC(=O)N3CCN(C(=O)c4ccc(N[C@@H]5C[C@H](C)N(C(=O)CC)c6ccccc65)cc4)CC3)cc2)C[C@@H]1C` (relative stereo) [Compound 6m, 4-(4-(((2S,4R)-2-Methyl-1-propionyl-1,2,3,4-tetrahydroquinolin-4-yl)amino)benzoyl)-N-(4-(((2S*,4R*)-2-methyl-1-propionyl-1,2,3,4-tetrahydroquinolin-4-yl)amino)phenyl)piperazine-1-carboxamide]: the IC50 was 0.08 nM in the experiment on SU-DHL-4 cells (Homo sapiens) and 90.3 nM in the experiment on DCAF16 KO SU-DHL-4 cells (Homo sapiens). Besides, the “Activity Attenuation Ratio” value in the experiment with DCAF16 KO SU-DHL-4 cells is recorded as 1164.

`CCC(=O)N1c2ccccc2[C@H](Nc2ccc(-n3cc(CNC(=O)N4CCC(N[C@@H]5C[C@H](C)N(C(=O)CC)c6ccccc65)CC4)nn3)cc2)C[C@@H]1C` (relative stereo) [Compound 10b, 4-(((2S*,4R*)-2-Methyl-1-propionyl-1,2,3,4-tetrahydroquinolin-4-yl)amino)-N-((1-(4-(((2S,4R)-2-methyl-1-propionyl-1,2,3,4-tetrahydroquinolin-4-yl)amino)phenyl)-1H-1,2,3-triazol-4-yl)methyl)piperidine-1-carboxamide]: the IC50 is 0.34 nM in the experiment on SU-DHL-4 cells (Homo sapiens) and 180 nM in the experiment with DCAF16 KO SU-DHL-4 cells (Homo sapiens). Moreover, the “Activity Attenuation Ratio” value with DCAF16 KO SU-DHL-4 cells is given as 524.

In the case of `CCC(=O)N1c2ccccc2[C@H](Nc2ccc(-n3cc(CNC(=O)c4ccc(Cn5c(CC)cc6c5CCCC6=O)cc4)nn3)cc2)C[C@@H]1C` [Compound 15f, 4-((2-Ethyl-4-oxo-4,5,6,7-tetrahydro-1H-indol-1-yl)methyl)-N-((1-(4-(((2S,4R)-2-methyl-1-propionyl-1,2,3,4-tetrahydroquinolin-4-yl)amino)phenyl)-1H-1,2,3-triazol-4-yl)methyl)benzamide], the figures for the IC50 in the experiment with SU-DHL-4 cells (Homo sapiens) and with DCAF16 KO SU-DHL-4 cells (Homo sapiens) were 0.03 nM and 28.3 nM, respectively. In the experiment on DCAF16 KO SU-DHL-4 cells, the “Activity Attenuation Ratio” value is 902.

In the case of `CCC(=O)N1c2ccccc2[C@H](Nc2ccc(CNCc3cn(-c4ccc(N[C@@H]5C[C@H](C)N(C(=O)CC)c6ccccc65)cc4)nn3)cc2)C[C@@H]1C` [Compound 5h, 1-((2S,4R)-2-Methyl-4-((4-((((1-(4-(((2S,4R)-2-methyl-1-propionyl-1,2,3,4-tetrahydroquinolin-4-yl)amino)phenyl)-1H-1,2,3-triazol-4-yl)methyl)amino)methyl)phenyl)amino)-3,4-dihydroquinolin-1(2H)-yl)propan-1-one], the figures for the IC50 with SU-DHL-4 cells (Homo sapiens) and with DCAF16 KO SU-DHL-4 cells (Homo sapiens) were 0.06 nM and 58.4 nM, respectively. In addition, in the experiment with DCAF16 KO SU-DHL-4 cells, the “Activity Attenuation Ratio” value stood at 942.

`CCC(=O)N1c2ccccc2[C@H](Nc2ccc(-c3cnn(CCNC(=O)c4ccc(Cn5c(C(=O)OCCN(C)C)cc6c5CCCC6=O)cc4)c3)cc2)C[C@@H]1C` [Compound 15d, 2-(Dimethylamino)ethyl 1-(4-((2-(4-(4-(((2S,4R)-2-methyl-1-propionyl-1,2,3,4-tetrahydroquinolin-4-yl)amino)phenyl)-1H-pyrazol-1-yl)ethyl)carbamoyl)benzyl)-4-oxo-4,5,6,7-tetrahydro-1H-indole-2-carboxylate]: the IC50 is 0.11 nM with SU-DHL-4 cells (Homo sapiens) and 858 nM in the experiment on DCAF16 KO SU-DHL-4 cells (Homo sapiens). In addition, the “Activity Attenuation Ratio” value in the experiment with DCAF16 KO SU-DHL-4 cells amounted to 7994.

As for `CCC(=O)N1c2ccccc2[C@H](Nc2ccc(C(=O)N3CC4CC3CN4C(=O)c3ccc(N[C@@H]4C[C@H](C)N(C(=O)CC)c5ccccc54)cc3)cc2)C[C@@H]1C` [Compound 1k, 1,1′-{(2S,2'S,4R,4′R)-{[(2,5-Diazabicyclo[2.2.1]heptane-2,5-dicarbonyl)bis(4,1-phenylene)]bis(azanediyl)}bis[2-methyl-3,4-dihydroquinoline-4,1(2H)-diyl]}bis(propan-1-one)], the IC50 is 0.22 nM in the experiment with SU-DHL-4 cells (Homo sapiens) and 7.42 nM in the experiment with DCAF16 KO SU-DHL-4 cells (Homo sapiens). Further, in the experiment with DCAF16 KO SU-DHL-4 cells, the “Activity Attenuation Ratio” value came to 34.

`CCC(=O)N1c2ccccc2[C@H](Nc2ccc(C(=O)NCC(=O)CNC(=O)c3ccc(N[C@@H]4C[C@H](C)N(C(=O)CC)c5ccccc54)cc3)cc2)C[C@@H]1C` [Compound 1l, N,N′-(2-Oxopropane-1,3-diyl)bis(4-{[(2S,4R)-2-methyl-1-propionyl-1,2,3,4-tetrahydroquinolin-4-yl]amino}benzamide)]: the IC50 is 0.03 nM in the experiment with SU-DHL-4 cells (Homo sapiens) and 101 nM in the experiment with DCAF16 KO SU-DHL-4 cells (Homo sapiens). Also, the “Activity Attenuation Ratio” value in the experiment on DCAF16 KO SU-DHL-4 cells is 3357.

For the compound `CCC(=O)N1c2ccccc2[C@H](Nc2ccc(NC(=O)CCCC(=O)Nc3cccc(Oc4ccccc4-c4cn(C)c(=O)cc4OC)c3)cc2)C[C@@H]1C` [Compound 16m, N^1-(3-(2-(4-Methoxy-1-methyl-6-oxo-1,6-dihydropyridin-3-yl)phenoxy)phenyl)-N5-(4-(((2S,4R)-2-methyl-1-propionyl-1,2,3,4-tetrahydroquinolin-4-yl)amino)phenyl)glutaramide], the IC50 in the experiment with SU-DHL-4 cells (Homo sapiens) is 0.62 nM; in the experiment on DCAF16 KO SU-DHL-4 cells (Homo sapiens), 208 nM. Besides, the concentration for an effect of 90% (IC90) with SU-DHL-4 cells (Homo sapiens) stood at 1.85 nM. Besides, the “Activity Attenuation Ratio” value with DCAF16 KO SU-DHL-4 cells is 338.

Take `CCC(=O)N1c2ccccc2[C@H](Nc2ccc(C(=O)NC3CCN(C(=O)c4ccc(N[C@@H]5C[C@H](C)N(C(=O)CC)c6ccccc65)cc4)CC3)cc2)C[C@@H]1C` (relative stereo) [Compound 1c, 4-{[(2S*,4R*)-2-Methyl-1-propionyl-1,2,3,4-tetrahydroquinolin-4-yl]amino}-N-[1-(4-{[(2S*,4R*)-2-methyl-1-propionyl-1,2,3,4-tetrahydroquinolin-4-yl]amino}benzoyl)piperidin-4-yl]benzamide]: the IC50 in the experiment with SU-DHL-4 cells (Homo sapiens) is 2.93 nM; in the experiment with DCAF16 KO SU-DHL-4 cells (Homo sapiens) it was 385 nM. Also, in the experiment on DCAF16 KO SU-DHL-4 cells, the “Activity Attenuation Ratio” value is 131.

With `CCC(=O)N1c2ccccc2[C@H](Nc2ccc(Cn3cc(C(=O)Nc4ccc(N[C@@H]5C[C@H](C)N(C(=O)CC)c6ccccc65)cc4)nn3)cc2)C[C@@H]1C` [Compound 5j, 1-(4-(((2S,4R)-2-Methyl-1-propionyl-1,2,3,4-tetrahydroquinolin-4-yl)amino)benzyl)-N-(4-(((2S,4R)-2-methyl-1-propionyl-1,2,3,4-tetrahydroquinolin-4-yl)amino)phenyl)-1H-1,2,3-triazolee-4-carboxamide], in the experiment with SU-DHL-4 cells, the IC50 was 0.04 nM and the IC90 is 0.08 nM. In the experiment on DCAF16 KO SU-DHL-4 cells, the “Activity Attenuation Ratio” value came out at 941 and the IC50 is 37.3 nM.

`CCC(=O)N1c2ccccc2[C@H](Nc2ccc(-c3cnn(CC(=O)Nc4ccc(C5=NCc6nnc(C)n6-c6sc(C)c(C)c65)cc4)c3)cc2)C[C@@H]1C` [Compound 14a, 2-(4-(4-(((2S,4R)-2-Methyl-1-propionyl-1,2,3,4-tetrahydroquinolin-4-yl)amino)phenyl)-1H-pyrazol-1-yl)-N-(4-(2,3,9-trimethyl-6H-thieno[3,2-f][1,2,4]triazolo[4,3-a][1,4]diazepin-4-yl)phenyl)acetamide]: the IC50 in the experiment on SU-DHL-4 cells (Homo sapiens) is 0.017 nM; in the experiment with DCAF16 KO SU-DHL-4 cells (Homo sapiens), 4 nM. Further, the “Activity Attenuation Ratio” value with DCAF16 KO SU-DHL-4 cells worked out at 228.

In the case of `CCC(=O)N1c2ccccc2[C@H](Nc2ccc(Cc3cnc4n3CCN(C(=O)c3ccc(N[C@@H]5C[C@H](C)N(C(=O)CC)c6ccccc65)cc3)C4)cc2)C[C@@H]1C` [Compound 5q, 1-((2S,4R)-2-Methyl-4-((4-((7-(4-(((2S,4R)-2-methyl-1-propionyl-1,2,3,4-tetrahydroquinolin-4-yl)amino)benzoyl)-5,6,7,8-tetrahydroimidazo[1,2-a]pyrazin-3-yl)methyl)phenyl)amino)-3,4-dihydroquinolin-1(2H)-yl)propan-1-one], the IC50 was 0.09 nM in the experiment on SU-DHL-4 cells (Homo sapiens) and 622 nM in the experiment with DCAF16 KO SU-DHL-4 cells (Homo sapiens). Also, the “Activity Attenuation Ratio” value in the experiment with DCAF16 KO SU-DHL-4 cells amounted to 7078.

With `CCC(=O)N1c2ccccc2[C@H](Nc2ccc(NC(=O)C3CN(C(=O)c4ccc(N[C@@H]5C[C@H](C)N(C(=O)CC)c6ccccc65)cc4)C3)cc2)C[C@@H]1C` (relative stereo) [Compound 2h, 1-(4-{[(2S,4R)-2-Methyl-1-propionyl-1,2,3,4-tetrahydroquinolin-4-yl]amino}benzoyl)-N-(4-{[(2S*,4R*)-2-methyl-1-propionyl-1,2,3,4-tetrahydroquinolin-4-yl]amino}phenyl)azetidine-3-carboxamide], the IC50 in the experiment with SU-DHL-4 cells (Homo sapiens) is 0.03 nM; in the experiment on DCAF16 KO SU-DHL-4 cells (Homo sapiens) it was 12.2 nM. Also, the “Activity Attenuation Ratio” value in the experiment with DCAF16 KO SU-DHL-4 cells is given as 408.

In the case of `CCC(=O)N1c2ccccc2[C@H](Nc2ccc(NC(=O)CCCC(=O)Nc3ccc(N[C@@H]4C[C@H](C)N(C(=O)CC)c5ccccc54)nc3)cc2)C[C@@H]1C` [Compound 10k, N^1-(4-(((2S,4R)-2-Methyl-1-propionyl-1,2,3,4-tetrahydroquinolin-4-yl)amino)phenyl)-N^5-(6-(((2S,4R)-2-methyl-1-propionyl-1,2,3,4-tetrahydroquinolin-4-yl)amino)pyridin-3-yl)glutaramide], the IC50 is 0.21 nM in the experiment on SU-DHL-4 cells (Homo sapiens) and 143 nM in the experiment on DCAF16 KO SU-DHL-4 cells (Homo sapiens). Also, in the experiment on DCAF16 KO SU-DHL-4 cells, the “Activity Attenuation Ratio” value was 672.

Values taken from patent publication US20220378923A1, “BET DEGRADER” (KYOWA KIRIN CO., LTD., priority 2019, published 2022).
